# Laboratory results from US20260137079A1, “DISPENSER AND METHOD OF USE THEREOF” (priority 2019, published 2026).
# Assay: Suppression of recrystallization of actives that are solid at room temperature
# Format: physicochemical
# Conditions: glycol ether solvent with Transfluthrin (TFT)
compound,measurement,value
"COCC(C)OCC(C)OC (stereo not shown) [DMM, Dipropylene glycol Dimethyl Ether]",effect on recrystallization of actives solid at room temperature,suppress the recrystallization
